From patent US20240197596A1, “COMPOUNDS USEFUL AS HAIR DYES” (National University of Singapore, priority 2021, published 2024)
Values after ≈ are worked out from the molar mass of the structure shown. Values joined by “and” are separate entries in the source; they are usually repeats but may differ in a detail not shown here. Equal entries are not always repeated. “Also recorded” adds a separate entry of the source.

Experiments:
[1] = Hair nuance test; parameters: key to L* / a* / b*: CIELAB L*, a*, b* coordinates; key to ΔE (total colour difference to natural hair): ΔE = √((L*−L0)²+(a*−a0)²+(b*−b0)²) vs untreated hair; conditions: for eventual colour of bleached hair, Type A: Type A (Non-oxidative) formulation; for eventual colour of bleached hair, Type B: Type B (Oxidative, H2O2) formulation; for eventual colour of bleached hair, Type C: Type C (Oxidative with coupler resorcinol) formulation
Method: 35 g of bleaching powder was mixed with 50 mL of developer then applied onto undyed black hair (wrapped in aluminium foil to enhance the bleaching process) and left on for 45 min. The hair was then rinsed with deionized water and shampoo and left to dry. This process was repeated twice.
Hair dye formulations were prepared from N1-N13 according to methods reported (New Journal of Chemistry. 2019; 43(41):16188-99), and with the compositions stated in Table 11 Bleached hair samples were immersed into the respective formulations for 20 min, then air dried for 20 min. Then they were shampooed twice and treated with conditioner for 5 min.
SkinColorCatch (Delfin Technologies Ltd, Kuopio, Finland) was used to measure CIELAB tristimulus L*, a* and b* values of the dyed hair samples and baseline L0, a0, b0 values from untreated hair. The difference in colour tone (ΔH) and the total colour difference (ΔE) were then derived from the values obtained with the equations below:
ΔH=√{square root over ((a*−a0)^2+(b*−b0)^2)}
ΔE=√{square root over ((L*−L0)^2+(a*−a0)^2+(b*−b0)^2)}

[2] = tested on: THP-1 cells; assay: MTT assay on THP-1 cells (CV75); assay type: cell-based, human; conditions: THP-1 cells, 24 h
Method in brief: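 THP-1 cells seeded at 1×10^5 cells/well, grown 24 h at 37 °C/5% CO2, then exposed to a dilution series for 24 h (6 replicates). MTT added for 3 h, formazan dissolved in DMSO, absorbance read at 570 nm; CV75 derived from % viability.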

[3] = Thermodynamic solubility assay (modified shake flask, LC-MS/MS); conditions: Milli-Q water, pH=7, 25° C., 24 h, 3 separate determinations; for solubility at 24 h: 25 °C, pH 7, water, thermodynamic from solid
Method in brief: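 Excess compound was shaken in water (pH 7) at 300 rpm and 25° C for 24 h. The supernatant was cleared by two centrifugations at 23,000 g for 20 min. Concentration was quantified by LC-MS/MS (ESI+) against a four-point standard curve.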

[4] = Skin permeation study, Franz diffusion cell; assay type: in vitro ADME, porcine; conditions: for Cumulative amount at 8th hour: 1% w/v in deionized water; for Cumulative amount at 8th hour / Cumulative amount comparison of PPD vs derivatives (times less than PPD) / Permeated through skin into receptor / Recovered in donor compartment / Recovered in skin / Recovered in skin outside diffusion area / Recovered in skin swabs / Recovered on parafilm and in washes: 8 h; for Permeated through skin into receptor / Recovered in donor compartment / Recovered in skin / Recovered in skin outside diffusion area / Recovered in skin swabs / Recovered on parafilm and in washes: mass balance; for recovery at 8 h, 1 % w/v: pig, end of 8 h, read-out: Total recovery (mean percentage parent compound recovery)
Method: In each Franz cell, a piece of pig ear skin prepared to a thickness of […] was clamped securely. 5 mL of PBS solution was added to the receiver compartment which was purged of air bubbles to ensure maximal contact of the skin piece with the solution. Donor solution was prepared by dissolving N1-N13 in deionized water at 1% w/v, and 900 μL was added to the donor compartment. The study was conducted for 8 h, and aliquots of 200 μL were removed from the receiver solution and topped up with fresh PBS at each timepoint of 15-minutes intervals for the first hour and every hour after that.
For mass balance, at the end of 8 h, skin pieces and swabs of the top and bottom surface of the skin were collected and stored in ACN for N1-N13 extraction. Donor solution and receiver solution were also collected.
The aliquot samples collected were subjected to 2-step extraction using 750 μL of dichloromethane (DCM). […] The solvent was dried using the TurboVap, and then reconstituted with 198 μL of 0.1% formic acid in 50% methanol in water and spiked with 2 μL of ANP (internal standard). The processed aliquot samples and mass balance samples were then sent for analysis using LC-MS/MS. The compounds' steady state fluxes and permeability coefficients were then calculated by fitting the solution to Fick's […] of diffusion at the steady state (linear part) of each experimental cumulative amount curve.

[5] = Type C (Oxidative with coupler resorcinol)

Row | solubility at 24 h [3] [mg/mL] | Cumulative amount at 8th hour [4] | Permeated through skin into receptor [4] | Structure (SMILES) | L* ([1]; Type A (Non-oxidative)) | a* ([1]; Type A (Non-oxidative)) | b* ([1]; Type A (Non-oxidative)) | ΔE (total colour difference to natural hair) ([1]; Type A (Non-oxidative)) | ΔH (difference in colour tone) ([1]; Type A (Non-oxidative)) | L* ([1]; Type B (Oxidative)) | a* ([1]; Type B (Oxidative)) | b* ([1]; Type B (Oxidative)) | ΔH (difference in colour tone) ([1]; Type B (Oxidative)) | eventual colour of bleached hair, Type B [1] | L* [1, 5] | a* [1, 5] | b* [1, 5] | ΔE (total colour difference to natural hair) [1, 5] | ΔH (difference in colour tone) [1, 5] | eventual colour of bleached hair, Type C [1] | CV75 (concentration affording 75% cell viability), 1 × CV75 [2] [µg/mL] | also measured
1 | 65 to 72 (≈ 357 to 395 mM) | 0.0080 μg/cm^2 and 0.008 μg/cm^2 | <0.001 % of applied compound dose | COCCOc1cc(N)ccc1N [Compound N7, 2-(2-methoxyethoxy)benzene-1,4-diamine] | 22 | 2.7 | 4.7 | 13.8 | 4.6 | 19 | 4.7 | 3 | 5.1 | Walnut brown | 12.3 | −0.7 | −4 | 6.0 | 5.0 | vibrant blue colours; also recorded: Navy blue | 44.6 | eventual colour of bleached hair, Type A [1]: dark brown colour shade; also recorded: Dark hazelnut; ΔE (total colour difference to natural hair) ([1]; Type B (Oxidative)): 11.2; Solubility [3]: 62 mg/mL (≈ 340 mM); Cumulative amount comparison of PPD vs derivatives (times less than PPD) [4]: 675.0; Recovered in donor compartment [4]: 97.5 % of applied compound dose; Recovered in skin [4]: 0.03 % of applied compound dose; Recovered in skin outside diffusion area [4]: 0.007 % of applied compound dose; Recovered in skin swabs [4]: 0.09 % of applied compound dose; Recovered on parafilm and in washes [4]: 0.001 % of applied compound dose; recovery at 8 h, 1 % w/v [4]: 97 ± 1.49%
2 | 38 (≈ 210 mM) | 0.0106 μg/cm^2 | <0.001 % of applied compound dose | CNCCOc1cc(N)ccc1N [Compound N13, 2-(2-(methylamino)ethoxy)benzene-1,4-diamine] | 24 | 8 | 8 | 18.38 | 4.28 | 36 | 11 | 18 | 5.8 | Grey | 25 | 14 | 11 | 23.49 | 4.84 | Brown | 54.3 | ΔE (total colour difference to natural hair) ([1]; Type B (Oxidative)): 33.74; Recovered in donor compartment [4]: 93.0 % of applied compound dose; Recovered in skin [4]: 0.03 % of applied compound dose; Recovered in skin outside diffusion area [4]: 0.003 % of applied compound dose; Recovered in skin swabs [4]: 0.02 % of applied compound dose; Recovered on parafilm and in washes [4]: 0.003 % of applied compound dose; recovery at 8 h, 1 % w/v [4]: 93.1 ± 1.2%

Continued, compound first:

Row | Structure (SMILES) | solubility at 24 h [3] [mg/mL] | Cumulative amount at 8th hour [4] | Permeated through skin into receptor [4] | L* ([1]; Type A (Non-oxidative)) | a* ([1]; Type A (Non-oxidative)) | b* ([1]; Type A (Non-oxidative)) | ΔE (total colour difference to natural hair) ([1]; Type A (Non-oxidative)) | ΔH (difference in colour tone) ([1]; Type A (Non-oxidative)) | L* ([1]; Type B (Oxidative)) | a* ([1]; Type B (Oxidative)) | b* ([1]; Type B (Oxidative)) | ΔH (difference in colour tone) ([1]; Type B (Oxidative)) | eventual colour of bleached hair, Type B [1] | L* [1, 5] | a* [1, 5] | b* [1, 5] | ΔE (total colour difference to natural hair) [1, 5] | ΔH (difference in colour tone) [1, 5] | eventual colour of bleached hair, Type C [1] | CV75 (concentration affording 75% cell viability), 1 × CV75 [2] [µg/mL] | also measured
3 | Nc1ccc(N)c(OCOCO)c1 [Compound N8, ((2,5-diaminophenoxy)methoxy)methanol] | 78 to 100 (≈ 423 to 543 mM) | 0.00843 μg/cm^2 | <0.001 % of applied compound dose | 12 | −1 | 6 | 5.91 | 2.43 | 9 | 0 | −1 | 1.41 | black colour | 10 | 0 | 3 | 2.23 | 1.49 | Brown | 141 | eventual colour of bleached hair, Type A [1]: Black; ΔE (total colour difference to natural hair) ([1]; Type B (Oxidative)): 2; Solubility [3]: 92 + 3.0 mg/ml; Cumulative amount comparison of PPD vs derivatives (times less than PPD) [4]: 640; Recovered in donor compartment [4]: 95.0 % of applied compound dose; Recovered in skin [4]: 0.06 % of applied compound dose; Recovered in skin outside diffusion area [4]: 0.0018 % of applied compound dose; Recovered in skin swabs [4]: 0.02 % of applied compound dose; Recovered on parafilm and in washes [4]: 0.004 % of applied compound dose; recovery at 8 h, 1 % w/v [4]: 95.1 ± 1.3%
4 | CCOCOc1cc(N)ccc1N [Compound N3, 2-(ethoxymethoxy)benzene-1,4-diamine] | 65 to 72 (≈ 357 to 395 mM) | 0.0088 μg/cm^2 and 0.00875 μg/cm^2 | <0.001 % of applied compound dose | 19 | 5 | 4 | 11.6 | 5.8 | 9 | 0 | −1 | 2.0 | black colour | 17 | −1 | 2 | 8.1 | 1.4 | Brownish black | 115 | eventual colour of bleached hair, Type A [1]: Black; Solubility [3]: 65 + 3.6 mg/ml; Recovered in donor compartment [4]: 97.2 % of applied compound dose; Recovered in skin [4]: 0.01 % of applied compound dose; Recovered in skin outside diffusion area [4]: 0.004 % of applied compound dose; Recovered in skin swabs [4]: 0.04 % of applied compound dose; Recovered on parafilm and in washes [4]: 0.005 % of applied compound dose; recovery at 8 h, 1 % w/v [4]: 97 ± 1.05%
5 | C=C(C)Oc1cc(N)ccc1N [Compound N12, 2-(prop-1-en-2-yloxy)benzene-1,4-diamine] | 32 (≈ 195 mM) | 0.0145 μg/cm^2 and 0.0144 μg/cm^2 | <0.001 % of applied compound dose | 17 | 9 | 4 | 12.4 | 3.52 | 28 | 18 | 12 | 5.32 | brown colour | 11 | 0 | −3 | 4.47 | 2.11 | distinct purple colour | 44.7 | ΔE (total colour difference to natural hair) ([1]; Type B (Oxidative)): 28.39; Recovered in donor compartment [4]: 96.0 % of applied compound dose; Recovered in skin [4]: 0.02 % of applied compound dose; Recovered in skin outside diffusion area [4]: 0.0045 % of applied compound dose; Recovered in skin swabs [4]: 0.05 % of applied compound dose; Recovered on parafilm and in washes [4]: 0.007 % of applied compound dose; recovery at 8 h, 1 % w/v [4]: 96.1 ± 1%
